Data on three compounds can be found in patent publication US4965280A, “Antifungal carbinols” (E. I. Du Pont de Nemours and Company, priority 1989, dated 1990).

One may read the MIC as the lowest concentration that inhibits growth of the organism.

Values after ≈ are worked out from the molar mass of the structure shown. Like-named read-outs stand apart in the source and are kept apart here.

One assay relates to Pyricularia oryzae. Kind of assay: whole plant or invertebrate. The assay is classed as in vivo. Particulars: Pyricularia oryzae, 120 h; for pest or weed control at 100 ppm: read-out: disease control rating, Ex. E, 100 PPM.
Assay [1] concerns Candida albicans ATCC 11651. Kind of assay: In vivo systemic Candida infection in mice, primary assay. The arrangement: species or system Candida albicans; CF-1 female mice. The settings on record: Candida albicans, 150 mg/kg per day, read-out: % Survival. In outline: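 CF-1 female mice (20 g, 10 per group) were infected IV with 0.2 ml of 1×10^7/ml C. albicans ATCC 11651, then given test compound subcutaneously at 50 or 150 mg/kg/day at 1 and 6 h post-infection and once daily for three more days. Survival was followed for 21 days against infected untreated mice; ≥70% protection at 14 days was scored active.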

The subject of a further assay is Botrytis cinerea. Kind of assay: Example C bean grey mold. It counts as in vivo. The settings on record: Botrytis cinerea, 24 h, read-out: disease control rating, Ex. C. In outline: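 Test compounds were taken up in acetone (6% of final volume) and suspended at 100 or 20 ppm in purified water containing 250 ppm TREM 014 surfactant (polyhydric alcohol esters). Broad bean seedlings were sprayed with this suspension until run-off.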

In assay [2] the test system is Fusarium oxysporum f. sp. cucumerinum. Kind of assay: Example L cucumber wilt. Particulars: 336 h, 5 kg/ha, read-out: disease control rating, Ex. L. The assay is classed as in vivo. As to the method: […] Seeds and soil were then inoculated with a mixture of sand, cereal and mycelium of the fungus Fusarium oxysporum f. sp. cucumerinum, causal agent of cucumber wilt, and incubated in a growth chamber at 30° C. for 14 days. Disease ratings were then made.

The subject of assay [3] is Erysiphe graminis f. sp. tritici. Kind of assay: Example D wheat powdery mildew. The assay is classed as in vivo. The settings on record: Blumeria graminis, 144 h, read-out: disease control rating, Ex. D. Put shortly:
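Compounds were dissolved in acetone (6% of final volume), then suspended at 100 or 20 ppm in purified water containing 250 ppm TREM 014 surfactant. Wheat seedlings were sprayed with this suspension to run-off.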

The next assay relates to Phytophthora infestans. Kind of assay: whole plant or invertebrate. Particulars: Phytophthora infestans, in Solanum lycopersicum, read-out: disease control rating, Ex. H, 100 PPM. The assay is classed as in vivo.
The subject of assay [4] is Candida albicans ATCC 11651. Kind of assay: In vitro antifungal MIC, microtiter broth dilution. Particulars: Candida albicans, ATCC11651, 24 h, read-out: MIC values, C. albicans, 30°, 24 hours. (In general: In broth dilution the organism is exposed to a series of concentrations in liquid medium.)
Description: (§1) In vitro activity (Table 5) is expressed in terms of the minimal inhibitory concentration (MIC) of the test compound which inhibits the growth of yeasts and fungi.
(§2) The target organisms, Candida albicans ATCC 11651 and Aspergillus fumigatus ATCC 28214 are standardized, [V. Bezjak, J. Clinical Micro., 21 509-512 (1984)], to a concentration of 10^7 organisms/ml and maintained at -70° until use. Test compounds are solubilized in dimethyl sulfoxide (DMSO) and diluted in Eagle's Minimum Essential Medium (EMEM) broth to achieve a final concentration of 200 μg/ml. Stock solutions of standard antifungal agents are stored at -70° and diluted in EMEM as required.
(§3) The in vitro assay utilizes a microtiter broth dilution technique [L. Polonelli and G. Morace, Mycopathologia, 86, 21-28 (1984)] and C. […] The appropriate wells are inoculated with the required organism (C. albicans at 1×10^4 organisms/ml and A. fumigatus at 5×10^5 organisms/ml) and the assay incubated at 30° for 24 hours.
The next assay concerns Pythium aphanadermatum. Kind of assay: Example J cucumber damping off. Particulars: Pythium, 336 h; 5 kg/ha; read-out: disease control rating, Ex. J. It counts as in vivo. Put shortly: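 Seeds and soil were inoculated with a mix of sand, cereal and Pythium aphanadermatum mycelium, the fungus responsible for cucumber damping off. They were kept in a growth chamber at 30° C. for 14 days, and disease was then rated to assess control.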

In the next assay the test system is Puccinia recondita. Kind of assay: Example G wheat leaf rust. It counts as in vivo. Particulars: read-out: disease control rating, Ex. G.
Assay [5] has as its system Aspergillus fumigatus ATCC 28214. Kind of assay: In vitro antifungal MIC, microtiter broth dilution. The settings on record: Aspergillus fumigatus, ATCC28214, 24 h, read-out: MIC values, A. fumigatus, 30°, 24 hours.
Description: as §1, §2, §3
Assay [6] has as its system Cercosporidium personatum. Kind of assay: Example B Peanut Late Leafspot. It counts as in vivo. The settings on record: Nothopassalora personata, read-out: disease control rating, Ex. B. Put shortly:
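Compounds were dissolved in acetone (6% of final volume) and suspended at 100 or 20 ppm in purified water containing 250 ppm TREM 014 surfactant (polyhydric alcohol esters). The suspension was sprayed to run-off on peanut seedlings.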

For a further assay, the system named is Venturia inaequalis. Kind of assay: Example A apple scab. The settings on record: read-out: disease control rating, Ex. A. It counts as in vivo. In outline:
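Test compounds were dissolved in acetone (6% of final volume) and suspended at 100 or 20 ppm in purified water containing 250 ppm of the surfactant TREM 014 (polyhydric alcohol esters). Apple seedlings were sprayed with this suspension to the point of run-off.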

The test system of a further assay is Plasmorpara viticola. Kind of assay: Example I grape downy mildew. It counts as in vivo. Particulars: read-out: disease control rating, Ex. I. In outline:
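Compounds were dissolved in acetone (6% of final volume) and suspended at 100 or 20 ppm in purified water with 250 ppm TREM 014 surfactant (polyhydric alcohol esters). Grape seedlings were sprayed with this suspension to run-off.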

Assay [7] relates to Rhizoctonia solani. Kind of assay: Example K cotton blight. The assay is classed as in vivo. The settings on record: 336 h, 5 kg/ha, read-out: disease control rating, Ex. K. As to the method: […] Seeds and soil were then inoculated with a mixture of sand, cereal and mycelium of the fungus Rhizoctonia solani, causal agent of cotton blight, and incubated in a growth chamber at 30° C. for 14 days. Disease ratings were then made.

Assay [8] relates to Rhizoctonia solani. Kind of assay: Example F rice sheath blight. It counts as in vivo. Particulars: Rhizoctonia solani, 144 h, read-out: disease control rating, Ex. F. In outline: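 Compounds, dissolved in acetone at 6% of final volume, were suspended at 100 or 20 ppm in purified water with 250 ppm polyhydric alcohol ester surfactant (TREM 014). Rice seedlings were sprayed with this suspension to run-off.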

Another assay concerns Sclerotium rolfsii. Kind of assay: Example M southern blight. The assay is classed as in vivo. The settings on record: Agroathelia rolfsii, 336 h; 5 kg/ha; read-out: disease control rating, Ex. M. As for the experimental part:
[…] Seeds and soil were then inoculated with a mixture of sand, cereal and mycelium of the fungus Sclerotium rolfsii, causal agent of sourthern blight, and incubated in a growth chamber at 30° C. for 14 days. Disease ratings were then made.

`C=C(c1ccc(OC)cc1)C(O)(Cn1cncn1)c1ccc(F)cc1` (stereo not shown) [Example 726]: the pest or weed control at 20 ppm with Pyricularia oryzae (read-out: disease control rating, Ex. E, 20 PPM) came to 0%; in the assay with Botrytis cinerea (20 PPM), 23%; in assay [3] (20 PPM), 81%; in the assay with Puccinia recondita (20 PPM), 100%; in assay [6] (20 PPM), 0%; with Venturia inaequalis (20 PPM) it was 75%. In the assay with Rhizoctonia solani [8] (20 PPM), the pest or weed control at 20 ppm turned out to be 0%. Further, the pest or weed control at 100 ppm is 0% with Pyricularia oryzae, 0% in the assay on Phytophthora infestans, 38% in the assay on Plasmorpara viticola and 0% with Rhizoctonia solani [8]. Besides, the responders at 150 mg/kg worked out at 100% in [1] (ATCC11651, 168 h, day 7); 80% in assay [1] (ATCC11651, 336 h, day 14); 10% in assay [1] (ATCC11651, 504 h, day 21). For the same compound, the pest or weed control at 5000 g/ha worked out at 0% in assay [2], 0% with Pythium aphanadermatum, 20% in the assay with Rhizoctonia solani [7] and 0% in the assay on Sclerotium rolfsii. Further, the MIC in assay [4] turned out to be 0.8 µg/mL (≈ 2.36 µM); in assay [5], 6.3 µg/mL (≈ 18.6 µM).
With `C=C(c1ccc(Cl)cc1)C(O)(Cn1cncn1)c1ccc(Cl)cc1` (stereo not shown) [Example 27], the pest or weed control at 100 ppm in the assay with Pyricularia oryzae amounted to 95%; with Botrytis cinerea, 88%; in assay [3], 98%; in the assay with Phytophthora infestans, 24%; with Puccinia recondita it was 100%; in assay [6], 100%. The pest or weed control at 100 ppm is 62% with Venturia inaequalis, 84% in the assay with Plasmorpara viticola and 100% in the assay on Rhizoctonia solani [8]. Further, the responders at 150 mg/kg in assay [1] (ATCC11651, 168 h, day 7) was 100%; in [1] (ATCC11651, 336 h, day 14), 100%; in assay [1] (ATCC11651, 504 h, day 21) it was 100%. Further, the pest or weed control at 5000 g/ha (in [2]; in the assay with Pythium aphanadermatum; with Rhizoctonia solani [7]; with Sclerotium rolfsii) was 0% each time. Further, the MIC was ≤ 0.4 µg/mL in assay [4] and 12.5 µg/mL (≈ 34.7 µM) in assay [5].
On to `C=C(c1cccc(Cl)c1)C(O)(Cn1cncn1)c1ccc(Cl)cc1` (stereo not shown) [Example 41], for which the pest or weed control at 100 ppm came out at 7% in the assay on Pyricularia oryzae; 96% in the assay on Botrytis cinerea; 98% in assay [3]; 0% in the assay on Phytophthora infestans; 100% with Puccinia recondita; 100% in [6]. For the same compound, the values for the pest or weed control at 100 ppm with Venturia inaequalis, with Plasmorpara viticola and with Rhizoctonia solani [8] were 100%, 100% and 97%, respectively. The responders at 150 mg/kg came out at 100% in assay [1] (ATCC11651, 168 h, day 7) and 100% in assay [1] (ATCC11651, 336 h, day 14). Moreover, the pest or weed control at 5000 g/ha (in assay [2]; with Pythium aphanadermatum; with Rhizoctonia solani [7]; with Sclerotium rolfsii) was 0% throughout. For the same compound, the values for the MIC in [4] and in assay [5] were 0.4 µg/mL (≈ 1.11 µM) and 50 µg/mL (≈ 139 µM), respectively.
